This is an account of results in patent publication US20250114299A1, “COMBINATION THERAPY INTRAVAGINAL RINGS” (The population Council, Inc., priority 2022, published 2025).

Where two headings read alike, the source gives them in different places.

Data set [1] in a line: Solubility of DPV (Form I) in various solvents. Format: physicochemical.
The subject of data set [2] is wild-type HIV-1 strains and HIV-1 strains harboring different resistance-inducing mutations. Particulars: Das et al., J. Med Chem., 2004; cited from earlier work.
A short description of data set [3]: pKa of DPV (chemical properties). It counts as physicochemical.

As to `Cc1cc(C)c(Nc2ccnc(Nc3ccc(C#N)cc3)n2)c(C)c1` [DPV, 4-[[4-[(2,4,6-trimethylphenyl)amino]-2-pyrimidinyl]amino]benzonitrile], the Solubility in data set [1] (Form I, 0.01M HCl) came to 0.17 mg/g; in data set [1] (Form I, 0.1M HCl) it was 0.02 mg/g; in data set [1] (Form I, 0.1M NaOH), 0.001 mg/g; in data set [1] (Form I, Buffer pH 2), 0.095 mg/g; in data set [1] (Form I, Buffer pH 4), 0.0025 mg/g; in data set [1] (Form I, Buffer pH 6), 0.001 mg/g. For the same molecule, the Solubility in data set [1] (Form I, Buffer pH 8) is 0.001 mg/g; in data set [1] (Form I, Buffer pH 10), 0.001 mg/g; in data set [1] (Form I, Polyethylene glycol 400) it was 47.4 mg/g; in data set [1] (Form I, Propylene glycol), 2.69 mg/g; in data set [1] (Form I, Water), 0.001 mg/g; in data set [1] (water, read-out: solubility of dapivirine in water) it was less than 1 µg/mL. Moreover, in data set [1] (water), the “solubility in water” value is “virtually insoluble in water”. Besides, the “activity against wild-type and resistant HIV-1 strains” value in data set [2] was “potent activity”. Also, in data set [3], the pKa (usually the pH at which an ionisable group is half protonated) is given as 5.8.
